Laboratory results: patent US9951046B2, “TRPA1 modulators” (Algomedix, Inc., priority 2014, dated 2018)

Assays:
[1] = test system: paclitaxel-induced neuropathic pain; test: Paclitaxel chemotherapy-induced neuropathic pain model, von Frey filaments; format: in vivo; details: rat paclitaxel model, 10 mg/kg i.p.; for % MPE for reversing paclitaxel induced neuropathic pain: mechanical allodynia (von Frey)
Excerpt: Chemotherapy-induced peripheral neuropathy is one of the most serious complications of anti-cancer drug therapy. […] The TRPA1 antagonist, AD_09, has been reported to reduce neuropathic pain in the oxaliplatin model (Nativi, C, et al. (2013) Scientific Reports 3, 2005, 1-10.)
The studies described below provide a method to test compounds of the present invention in the established rat model of paclitaxel-induced neuropathic pain (Flatters, S J and Bennett, G, Pain (2004) 109:150-161) and provide evidence for efficacy for one compound of the present invention. In this procedure, male Sprague-Dawley rats received i.p. injections of 1 mg/kg paclitaxel or vehicle solution every other day for a total of 4 injections (Day 0, 2, 4 and 6). After receiving injections on even-number experimental days, the rats were tested for mechanical and cold allodynia on odd-number experimental days. After the full development of allodynia after the last paclitaxel injection on day 11, one subgroup of the rats (7 rats per treatment group) received an oral dose or i.p. injection of compound of the present invention (e.g., 1, 3, 10 or 30 mg/kg) or its vehicle solution. On the day of treatment, the test compound was administered at 10 mg/kg i.p. (2 ml/kg) dissolved in 10% DMSO, 20% Tween-80, 40% PEG-400. Additional test groups included vehicle control and gabapentin at 10, 30 and 100 mg/kg i.p. (2 ml/kg). The mechanical allodynia was measured at 2 hrs post-dose for compound 271. Mechanical allodynia was measured using the Von Frey filaments to determine the paw withdrawal threshold for each animal and assess the effects of the test compound-s to reduce pain. Rats were tested for mechanical and/or cold allodynia 1 hour after dosing.
Rats can be tested at approximately 2 hour intervals thereafter (time interval dependent on the effect) as long as the effect of TRPA1 antagonist lasts. In some cases, more than one treatment of the compound of the present invention (TRPA1 antagonist) can be given before or after the effect of the previous dose subsides to provide repetitive dosing regimens.

human TRPA1 = target: T1, human TRPA1 (Homo sapiens, UniProt O75762); test: Cell-based functional intracellular calcium ([Ca2+]i) assay, Fluo-4/Fluo-8, FlexStation, challenge with reference TRPA1 agonist (FFA, AITC or 4-HNE); details: HEK293 cells expressing human TRPA1; IC50 class after addition of reference TRPA1 agonist (FFA, AITC or 4-HNE); read-out: human TRPA1-HEK Activity
T1 construct: expressed in transfected cells
T1 sequence (O75762 whole entry): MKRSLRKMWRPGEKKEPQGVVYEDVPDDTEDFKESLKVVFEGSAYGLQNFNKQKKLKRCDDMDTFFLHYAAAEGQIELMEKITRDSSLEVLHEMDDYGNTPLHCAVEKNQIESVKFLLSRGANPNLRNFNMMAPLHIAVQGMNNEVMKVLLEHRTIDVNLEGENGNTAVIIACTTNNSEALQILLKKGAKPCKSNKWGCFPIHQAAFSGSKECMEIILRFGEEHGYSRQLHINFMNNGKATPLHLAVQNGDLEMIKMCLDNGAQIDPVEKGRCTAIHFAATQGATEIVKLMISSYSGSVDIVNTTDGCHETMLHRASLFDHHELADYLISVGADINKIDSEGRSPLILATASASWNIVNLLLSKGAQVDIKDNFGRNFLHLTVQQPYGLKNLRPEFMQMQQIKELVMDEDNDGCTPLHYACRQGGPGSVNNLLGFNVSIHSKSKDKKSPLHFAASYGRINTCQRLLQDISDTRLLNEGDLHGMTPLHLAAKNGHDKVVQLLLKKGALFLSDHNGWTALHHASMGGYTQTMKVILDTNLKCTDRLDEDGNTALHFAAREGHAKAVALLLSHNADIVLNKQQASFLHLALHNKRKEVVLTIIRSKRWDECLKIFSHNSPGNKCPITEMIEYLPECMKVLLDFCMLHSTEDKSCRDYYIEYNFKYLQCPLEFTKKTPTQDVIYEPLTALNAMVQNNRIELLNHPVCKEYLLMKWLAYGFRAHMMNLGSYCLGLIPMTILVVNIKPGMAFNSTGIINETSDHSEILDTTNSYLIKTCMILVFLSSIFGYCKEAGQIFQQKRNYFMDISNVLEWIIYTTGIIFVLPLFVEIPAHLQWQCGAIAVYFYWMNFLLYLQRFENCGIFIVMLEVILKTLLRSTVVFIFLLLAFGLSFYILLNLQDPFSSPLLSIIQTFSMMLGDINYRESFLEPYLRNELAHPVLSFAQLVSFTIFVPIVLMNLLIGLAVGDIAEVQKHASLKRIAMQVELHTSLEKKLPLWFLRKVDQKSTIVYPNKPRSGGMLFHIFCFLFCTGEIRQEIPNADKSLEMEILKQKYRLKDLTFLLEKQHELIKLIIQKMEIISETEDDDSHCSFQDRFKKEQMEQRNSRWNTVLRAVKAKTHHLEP
Method in brief: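 Doxycycline-induced (1 μg/ml) HEK293 expressing human TRPA1, with 5 μM ruthenium red during induction, loaded with Fluo-4 or Fluo-8 plus 2 mM probenecid; FlexStation read at 20-25° C, sometimes with 0.1% BSA.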

[2] = test system: neuropathic pain after L5-L6 spinal nerve injury; test: Spinal nerve ligation (SNL, Chung) neuropathic pain model, von Frey test; format: in vivo, rat; details: 30 mg/kg i.p.; for % MPE (% Maximum Possible Effect): rat, 18 days after L5-L6 spinal nerve injury, von Frey test 2 hrs post-dose, number of experiments in brackets; for anti-allodynic effect on paw withdrawal threshold and % MPE: rats 18 days after L5-L6 spinal nerve injury, mechanical allodynia 2 hrs post-dose, p<0.001 vs vehicle
Excerpt: This example describes the use of an animal model for testing compounds of the disclosure for their ability to reduce neuropathic pain. For the neuropathic pain model (spinal nerve ligation, SNL) also known as the Chung model, rats are anesthetized with isoflurane and placed on a heating pad. Using aseptic techniques, the L5 and L6 spinal nerves are exposed, ligated and transected (Kim, S. H. and Chung, J. […] Muscle and skin are closed with 4-0 Polydiaxone and wound clips, respectively. Allodynia is assessed 2-4 weeks post SNL surgery and only rats that develop allodynia as defined by a significant decrease in their mechanical threshold using von Frey filaments are used. Tactile allodynia is assessed with calibrated von Frey filaments (Stoelting Co, Wood Dale, Ill.), using an up-down paradigm (Chaplan, S. R., et al. (1994) J. Neurosci. Methods, 53 (1): 55-63). […] Test compounds are administered to the surgically treated rats either orally or I.P, and pain measurements are assessed at post-dosing intervals that correspond to near-maximal peak plasma concentrations for the test compound and specific mode of administration. The action of test compounds 175, 180, and 198 was evaluated in the Chung model after surgery to induce neuropathy. […] (10 ml/kg) was administered as a positive control group. Vehicle and test compounds were dissolved in 10% DMSO, 20% Tween-80 and 40% PEG-400. On the day before treatment, the neuropathic pain basal response was measured by von Frey test and the rats were randomized based on PWT responses. A cut-off of <4.0 g was considered before selection of animals for treatment. On the day of treatment, the test compounds were administered at 30 mg/kg i.p. (10 ml/kg) dissolved in 10% DMSO, 20% Tween-80, 40% PEG-400. […] (10 ml/kg). The mechanical allodynia was measured at 2 hrs post-dose. Results for compound 175 are shown in FIGS. 1 and 2 where data are presented as paw withdrawal threshold (PWT in g) (FIG. 1) and percentage of maximal possible effect (% MPE) (FIG. 2). Each bar represents the mean±SEM of 8 rats.

Compound	IC50 (human TRPA1) [µM]	further results
O=C(c1cc(-c2cccnc2)n(-c2ccc(F)c(C(F)(F)F)c2)n1)N1CCC(n2c(=O)[nH]c3ccc(F)c(F)c32)CC1 [Compound 271]		anti-allodynic effect on paw withdrawal threshold ([1]; 2 hrs post-dose, p<0.05): significant anti-allodynic effect; % MPE for reversing paclitaxel induced neuropathic pain [1]: 49.1 % MPE
O=C(c1cc(-c2cccnc2)n(-c2ccc(C(F)(F)F)c(F)c2)n1)N1CCC2(CC1)C(=O)NCN2c1ccc(F)cc1 [Compound 180]	0.001 to 5	% MPE (% Maximum Possible Effect) [2]: 65 (1) %; anti-allodynic effect on paw withdrawal threshold and % MPE [2]: significant anti-allodynic effect
O=C(c1cc(-c2ccncc2)n(-c2cc(F)c(F)c(F)c2)n1)N1CCC(n2c(=O)[nH]c3ccc(F)c(F)c32)CC1 [Compound 175]	0.001 to 5	% MPE (% Maximum Possible Effect) [2]: 59 ± 10 (3) ^ %; anti-allodynic effect on paw withdrawal threshold and % MPE [2]: significant anti-allodynic effect
O=C(c1cc(-c2cccnc2)n(-c2cc(F)c(F)c(F)c2)n1)N1C2CCC1CC(n1c(=O)[nH]c3ccc(F)c(F)c31)C2 (stereo not drawn) [Compound 250]	> 25	
O=C(c1cc(-c2cccnc2)n(-c2ccc(OC(F)(F)F)c(F)c2)n1)N1CCC(n2c(=O)[nH]c3ccc(F)c(F)c32)CC1 [Compound 215]	0.001 to 5	
O=C(c1cc(-c2ccc(Cl)nc2)n(-c2ccc(C(F)(F)F)c(F)c2)n1)N1CCC(n2c(=O)[nH]c3ccc(F)c(F)c32)CC1 [Compound 239]	0.001 to 5	
N#Cc1cc(C(F)(F)F)ccc1-n1nc(C(=O)N2CCC(n3c(=O)[nH]c4ccc(F)c(F)c43)CC2)cc1-c1cccnc1 [Compound 245]	> 25	
N#Cc1cccc2[nH]c(=O)n(C3CCN(C(=O)c4cc(-c5cccnc5)n(-c5ccc(C(F)(F)F)c(F)c5)n4)CC3)c12 [Compound 243]	> 25	
NCC1(CC(=O)O)CCCCC1 [gabapentin, reference compound]		% MPE for reversing paclitaxel induced neuropathic pain [1]: 34.8 % MPE
O=C(c1cc(-c2cccnc2)n(-c2cc(F)c(F)c(F)c2)n1)N1CCC(n2c(=O)[nH]c3ccc(F)c(F)c32)CC1 [Compound 198]	0.001 to 5	% MPE (% Maximum Possible Effect) [2]: 41 (1) %; anti-allodynic effect on paw withdrawal threshold and % MPE [2]: significant anti-allodynic effect
O=C(Nc1nc(-c2ccc(F)c(C(F)(F)F)c2)cs1)c1cc(-c2ccncc2)n(-c2ccccc2)n1 [Compound 37]	> 25	
O=C(c1cc(-c2cnccn2)n(-c2ccc(F)c(C(F)(F)F)c2)n1)N1CCC(n2c(=O)[nH]c3ccc(F)c(F)c32)CC1 [Compound 305]	0.001 to 5	
O=C(c1cc(-c2cccnc2)n(-c2ccc(F)c(C(F)(F)F)c2)n1)N1CCC(n2c(=S)[nH]c3ccc(F)c(F)c32)CC1 [Compound 291]	0.001 to 5	
COc1cc(F)ccc1N1CNC(=O)C12CCN(C(=O)c1cc(-c3cccnc3)n(-c3ccc(C(F)(F)F)c(F)c3)n1)CC2 [Compound 197]	5 to 25	
O=C1OC2(CCN(C(=O)c3cc(-c4ccncc4)n(-c4ccccc4)n3)CC2)c2ccccc21 [Compound 171]	> 25	
O=C(c1cc(-c2ccncc2)n(-c2ccc(C(F)(F)F)nc2)n1)N1CCC2(CC1)OCc1ccccc12 [Compound 122]	> 25	
O=C(c1nn(-c2cc(F)c(F)c(F)c2)c(-c2cccnc2)c1Br)N1CCC2(CC1)C(=O)NCN2c1ccc(F)cc1 [Compound 210]	0.001 to 5	
O=C(c1cc(-c2ccncc2)n(-c2ccc(C(F)(F)F)cc2)n1)N1CCC2(CC1)NCN(c1ccccc1)C2=O [Compound 73]	> 25	
O=C(c1cc(-c2ccncc2)n(-c2ccc(F)c(F)c2)n1)N1CCC2(CC1)NCN(c1ccccc1)C2=O [Compound 95]	> 25	
O=C(c1cc(-c2cccnc2)n(-c2ccc(I)cc2)n1)N1CCC(n2c(=O)[nH]c3ccc(F)c(F)c32)CC1 [Compound 237]	0.001 to 5	
